According to ChEMBL document CHEMBL4507262, “Data for DCP probe A-1596586” (2021):
Calls of active or inactive are those of the source. The rule behind the calls is not given here.

Legend:
[1] = system: Phosphatidylinositol 4,5-bisphosphate 3-kinase catalytic subunit alpha isoform (Homo sapiens), P42336 [M1043I]; conditions: Compound concentration 1000.0 nM
[2] = molecular target: Cystic fibrosis transmembrane conductance regulator (Homo sapiens, UniProt P13569); assay: Plasma membrane-expressed enzyme acceptor protein (EA-MEM) assay
[3] = molecular target: Non-receptor tyrosine-protein kinase TYK2 (Homo sapiens) (UniProt P29597); conditions: Compound concentration 1000.0 nM
[4] = molecular target: Ankyrin repeat and protein kinase domain-containing protein 1 (Homo sapiens) (UniProt Q8NFD2); conditions: Compound concentration 1000.0 nM
[5] = molecular target: Histamine H1 receptor (Homo sapiens) (UniProt P35367); assay: H1 (h) Eurofins-Cerep binding assay; parameters: ligand concentration 1 nM; conditions: filed as antagonist, Compound concentration 10.0 uM
[6] = molecular target: Sigma intracellular receptor 2 (Homo sapiens, UniProt Q5BJF2); assay: GPCRScan assay: inhibition of Sigma 2; parameters: radioligand conc. used [nm] 5.0, parental cells HEKT
Sequence of Sigma intracellular receptor 2 (Q5BJF2 whole entry): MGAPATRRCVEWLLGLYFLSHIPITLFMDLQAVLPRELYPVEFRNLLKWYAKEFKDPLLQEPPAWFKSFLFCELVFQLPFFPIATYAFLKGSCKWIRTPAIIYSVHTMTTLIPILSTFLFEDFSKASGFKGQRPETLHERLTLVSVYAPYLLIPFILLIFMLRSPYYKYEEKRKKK

[7] = system: Epidermal growth factor receptor (Homo sapiens), P00533 [UNDEFINED MUTATION]; conditions: Compound concentration 1000.0 nM
[8] = molecular target: Eukaryotic translation initiation factor 2-alpha kinase 1 (Homo sapiens) (UniProt Q9BQI3); conditions: Compound concentration 1000.0 nM
[9] = molecular target: Mitogen-activated protein kinase kinase kinase 5 (Homo sapiens) (UniProt Q99683); conditions: Compound concentration 1000.0 nM
Sequence of Mitogen-activated protein kinase kinase kinase 5 (Homo sapiens) (Q99683 whole entry): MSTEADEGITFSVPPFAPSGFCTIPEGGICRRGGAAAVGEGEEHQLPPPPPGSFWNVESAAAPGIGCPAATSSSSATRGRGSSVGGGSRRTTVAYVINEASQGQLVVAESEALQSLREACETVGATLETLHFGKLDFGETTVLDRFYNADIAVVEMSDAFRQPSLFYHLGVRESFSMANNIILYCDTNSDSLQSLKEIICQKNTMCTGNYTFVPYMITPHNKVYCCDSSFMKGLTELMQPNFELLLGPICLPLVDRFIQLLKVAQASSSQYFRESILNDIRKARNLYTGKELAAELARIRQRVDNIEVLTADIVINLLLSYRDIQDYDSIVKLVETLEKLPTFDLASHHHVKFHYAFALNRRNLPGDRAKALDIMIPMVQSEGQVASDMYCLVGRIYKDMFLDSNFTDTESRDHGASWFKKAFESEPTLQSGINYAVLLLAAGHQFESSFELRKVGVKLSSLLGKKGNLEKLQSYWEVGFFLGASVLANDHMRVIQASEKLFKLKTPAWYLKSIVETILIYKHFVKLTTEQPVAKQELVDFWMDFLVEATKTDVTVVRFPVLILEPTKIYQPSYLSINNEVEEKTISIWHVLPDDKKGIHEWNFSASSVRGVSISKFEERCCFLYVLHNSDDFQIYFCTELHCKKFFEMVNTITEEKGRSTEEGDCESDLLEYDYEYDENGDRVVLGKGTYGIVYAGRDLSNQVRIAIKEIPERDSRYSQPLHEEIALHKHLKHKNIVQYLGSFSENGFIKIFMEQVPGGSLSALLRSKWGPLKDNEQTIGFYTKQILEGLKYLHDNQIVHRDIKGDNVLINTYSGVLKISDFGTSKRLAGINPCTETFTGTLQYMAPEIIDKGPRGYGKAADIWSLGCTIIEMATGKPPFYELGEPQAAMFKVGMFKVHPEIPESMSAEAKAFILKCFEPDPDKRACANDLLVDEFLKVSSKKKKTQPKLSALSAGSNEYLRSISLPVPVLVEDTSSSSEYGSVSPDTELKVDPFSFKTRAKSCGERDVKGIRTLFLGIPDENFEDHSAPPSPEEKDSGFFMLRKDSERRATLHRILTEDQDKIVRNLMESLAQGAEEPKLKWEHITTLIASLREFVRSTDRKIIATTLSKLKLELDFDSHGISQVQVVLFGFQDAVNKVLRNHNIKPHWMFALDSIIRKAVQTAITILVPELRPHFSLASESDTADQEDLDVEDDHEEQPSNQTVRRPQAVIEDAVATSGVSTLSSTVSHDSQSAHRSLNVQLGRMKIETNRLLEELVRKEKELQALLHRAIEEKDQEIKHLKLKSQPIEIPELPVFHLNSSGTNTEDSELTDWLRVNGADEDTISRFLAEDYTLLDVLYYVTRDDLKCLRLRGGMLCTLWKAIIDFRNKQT

[10] = molecular target: Mitogen-activated protein kinase kinase kinase 14 (Homo sapiens) (UniProt Q99558); conditions: Compound concentration 1000.0 nM
[11] = molecular target: Muscarinic acetylcholine receptor M1 (Homo sapiens) (UniProt P11229); assay: M1 (h) Eurofins-Cerep binding assay; parameters: ligand concentration 2 nM; conditions: filed as antagonist, Compound concentration 10.0 uM
[12] = molecular target: Tumor necrosis factor (Homo sapiens) (UniProt P01375); assay: TNF-alpha (h) Eurofins-Cerep binding assay; parameters: ligand concentration 0.1 nM; conditions: filed as agonist, Compound concentration 10.0 uM
[13] = molecular target: TRAF2 and NCK-interacting protein kinase (Homo sapiens) (UniProt Q9UKE5); conditions: Compound concentration 1000.0 nM
[14] = molecular target: Serine/threonine-protein kinase D2 (Homo sapiens) (UniProt Q9BZL6); conditions: Compound concentration 1000.0 nM
Sequence of Serine/threonine-protein kinase D2 (Homo sapiens) (Q9BZL6 whole entry, canonical isoform): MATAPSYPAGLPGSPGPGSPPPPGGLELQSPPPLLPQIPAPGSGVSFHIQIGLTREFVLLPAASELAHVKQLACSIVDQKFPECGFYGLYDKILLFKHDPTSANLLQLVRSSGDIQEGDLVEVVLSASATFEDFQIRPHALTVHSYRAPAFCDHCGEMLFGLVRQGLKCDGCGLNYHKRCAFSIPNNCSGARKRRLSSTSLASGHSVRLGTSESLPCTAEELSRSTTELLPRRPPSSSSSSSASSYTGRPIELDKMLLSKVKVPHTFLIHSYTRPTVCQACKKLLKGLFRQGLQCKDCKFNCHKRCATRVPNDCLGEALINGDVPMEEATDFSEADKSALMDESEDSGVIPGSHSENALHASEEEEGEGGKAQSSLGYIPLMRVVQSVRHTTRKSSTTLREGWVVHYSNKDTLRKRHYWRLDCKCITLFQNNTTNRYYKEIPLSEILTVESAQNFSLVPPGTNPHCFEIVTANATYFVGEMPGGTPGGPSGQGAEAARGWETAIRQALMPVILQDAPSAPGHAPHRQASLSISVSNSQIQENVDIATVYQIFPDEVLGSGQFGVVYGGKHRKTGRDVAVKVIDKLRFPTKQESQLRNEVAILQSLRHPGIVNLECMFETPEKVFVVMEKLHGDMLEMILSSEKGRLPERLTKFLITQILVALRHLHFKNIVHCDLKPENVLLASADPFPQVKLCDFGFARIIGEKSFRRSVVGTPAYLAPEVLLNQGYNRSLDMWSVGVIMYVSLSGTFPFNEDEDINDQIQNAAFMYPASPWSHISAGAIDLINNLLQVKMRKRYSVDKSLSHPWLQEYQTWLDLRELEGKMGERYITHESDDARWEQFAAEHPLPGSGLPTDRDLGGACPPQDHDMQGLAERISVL

[15] = system: Phosphatidylinositol 4,5-bisphosphate 3-kinase catalytic subunit alpha isoform (Homo sapiens), P42336 [I800L]; conditions: Compound concentration 1000.0 nM
Sequence of Phosphatidylinositol 4,5-bisphosphate 3-kinase catalytic subunit alpha isoform (Homo sapiens), P42336 [I800L] (P42336 whole entry I800L, canonical isoform): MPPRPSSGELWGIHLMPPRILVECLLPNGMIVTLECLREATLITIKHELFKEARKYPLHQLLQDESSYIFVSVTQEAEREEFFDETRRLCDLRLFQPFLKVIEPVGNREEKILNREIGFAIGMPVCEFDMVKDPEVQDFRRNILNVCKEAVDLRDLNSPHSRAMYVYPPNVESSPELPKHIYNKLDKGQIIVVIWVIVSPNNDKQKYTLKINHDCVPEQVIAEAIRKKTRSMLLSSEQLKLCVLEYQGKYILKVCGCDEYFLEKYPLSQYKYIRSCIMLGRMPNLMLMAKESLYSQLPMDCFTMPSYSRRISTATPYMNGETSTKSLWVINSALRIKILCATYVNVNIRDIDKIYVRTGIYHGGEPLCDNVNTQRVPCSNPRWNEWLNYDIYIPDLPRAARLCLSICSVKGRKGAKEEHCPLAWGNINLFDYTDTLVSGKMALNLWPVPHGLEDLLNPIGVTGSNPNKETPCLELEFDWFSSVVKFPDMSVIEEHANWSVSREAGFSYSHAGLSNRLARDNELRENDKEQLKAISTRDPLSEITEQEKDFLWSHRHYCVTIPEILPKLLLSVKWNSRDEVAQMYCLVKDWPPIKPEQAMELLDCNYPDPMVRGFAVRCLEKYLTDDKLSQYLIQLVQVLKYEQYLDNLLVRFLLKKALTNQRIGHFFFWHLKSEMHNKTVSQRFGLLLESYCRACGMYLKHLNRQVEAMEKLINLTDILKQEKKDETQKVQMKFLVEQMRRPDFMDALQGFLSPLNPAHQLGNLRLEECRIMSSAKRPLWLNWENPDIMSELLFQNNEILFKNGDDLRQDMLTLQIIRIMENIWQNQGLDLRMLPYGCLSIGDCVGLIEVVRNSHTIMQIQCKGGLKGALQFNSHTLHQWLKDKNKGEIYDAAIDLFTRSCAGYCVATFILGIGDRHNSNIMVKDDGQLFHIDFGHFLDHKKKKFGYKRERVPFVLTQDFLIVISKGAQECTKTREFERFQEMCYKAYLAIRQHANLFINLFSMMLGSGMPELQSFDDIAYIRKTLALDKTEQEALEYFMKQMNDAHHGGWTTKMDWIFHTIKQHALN

[16] = molecular target: Serine/threonine-protein kinase TAO2 (Homo sapiens) (UniProt Q9UL54); conditions: Compound concentration 1000.0 nM
[17] = molecular target: D(1B) dopamine receptor (Homo sapiens) (UniProt P21918); conditions: Compound concentration 10.0 uM
Sequence of D(1B) dopamine receptor (Homo sapiens) (P21918 whole entry): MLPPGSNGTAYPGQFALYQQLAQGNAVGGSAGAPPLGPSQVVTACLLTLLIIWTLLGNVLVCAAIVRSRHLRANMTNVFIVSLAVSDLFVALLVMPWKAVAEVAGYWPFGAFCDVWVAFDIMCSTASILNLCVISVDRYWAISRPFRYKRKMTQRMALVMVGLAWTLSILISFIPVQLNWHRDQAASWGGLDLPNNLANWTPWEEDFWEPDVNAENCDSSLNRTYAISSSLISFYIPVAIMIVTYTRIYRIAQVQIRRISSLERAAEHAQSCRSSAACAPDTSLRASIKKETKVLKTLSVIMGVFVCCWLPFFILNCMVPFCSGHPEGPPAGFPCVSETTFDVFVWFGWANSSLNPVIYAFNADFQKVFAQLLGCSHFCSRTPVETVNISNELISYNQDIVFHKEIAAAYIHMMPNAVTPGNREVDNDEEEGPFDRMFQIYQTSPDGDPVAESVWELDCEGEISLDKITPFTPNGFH

[18] = molecular target: Serine/threonine-protein kinase MRCK alpha (Homo sapiens) (UniProt Q5VT25); conditions: Compound concentration 1000.0 nM
[19] = molecular target: Sodium/potassium-transporting ATPase (Sus scrofa) (UniProt P05027+P05024+D2WKD8+D2WKD7+F1ST41); assay: ATPase (Na+/K+) Eurofins-Cerep enzyme and uptake assay; format: protein-complex assay; conditions: Compound concentration 10.0 uM
[20] = molecular target: Ribosomal protein S6 kinase alpha-3 (Homo sapiens) (UniProt P51812); conditions: Compound concentration 1000.0 nM
[21] = molecular target: Myosin-IIIa (Homo sapiens) (UniProt Q8NEV4); conditions: Compound concentration 1000.0 nM
[22] = molecular target: Cyclin-dependent kinase 7 (Homo sapiens) (UniProt P50613); conditions: Compound concentration 1000.0 nM
[23] = molecular target: Serine/threonine-protein kinase/endoribonuclease IRE1 (Homo sapiens) (UniProt O75460); conditions: Compound concentration 1000.0 nM
[24] = molecular target: Serine/threonine-protein kinase RIO3 (Homo sapiens) (UniProt O14730); conditions: Compound concentration 1000.0 nM
[25] = molecular target: voltage-gated Na+ channel (site 2) (Rattus norvegicus, UniProt F1LQQ7+O08562+O88420+O88457+P04774+P04775+P08104+P15389+P15390+Q62968); assay: Na+ channel (site 2) Eurofins-Cerep binding assay; format: protein assay; parameters: incubation time 60 min, incubation temperature 37°C, ligand concentration 10 nM; conditions: rat cerebral cortex, probe [3H]batrachotoxin (10 nM), compound concentration 10 uM, read-out: % Inhibition of Control Specific Binding (Mean n=2)
[26] = GPCRScan assay: inhibition of GABA/PBR; parameters: species or system Rattus norvegicus; radioligand conc. used [nm] 0.3 – 2.0, parental cells brain tissue
[27] = molecular target: Mitogen-activated protein kinase 1 (Homo sapiens) (UniProt P28482); conditions: Compound concentration 1000.0 nM
[28] = molecular target: Tyrosine-protein kinase Fes/Fps (Homo sapiens) (UniProt P07332); conditions: Compound concentration 1000.0 nM
[29] = molecular target: Serine/threonine-protein kinase Sgk2 (Homo sapiens) (UniProt Q9HBY8); conditions: Compound concentration 1000.0 nM
Sequence of Serine/threonine-protein kinase Sgk2 (Homo sapiens) (Q9HBY8 whole entry): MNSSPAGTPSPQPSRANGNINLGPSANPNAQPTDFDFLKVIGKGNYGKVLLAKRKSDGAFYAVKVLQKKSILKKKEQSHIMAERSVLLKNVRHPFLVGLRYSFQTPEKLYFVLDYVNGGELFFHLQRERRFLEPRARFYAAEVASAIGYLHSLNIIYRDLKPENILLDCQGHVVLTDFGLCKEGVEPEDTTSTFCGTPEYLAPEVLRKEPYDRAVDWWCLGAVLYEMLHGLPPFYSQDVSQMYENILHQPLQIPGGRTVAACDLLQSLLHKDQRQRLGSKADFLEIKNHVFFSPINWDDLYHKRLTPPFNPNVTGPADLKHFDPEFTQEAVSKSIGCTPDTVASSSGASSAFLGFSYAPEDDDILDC

[30] = molecular target: Serine/threonine-protein kinase PLK3 (Homo sapiens) (UniProt Q9H4B4); conditions: Compound concentration 1000.0 nM
Sequence of Serine/threonine-protein kinase PLK3 (Homo sapiens) (Q9H4B4 whole entry, looked up): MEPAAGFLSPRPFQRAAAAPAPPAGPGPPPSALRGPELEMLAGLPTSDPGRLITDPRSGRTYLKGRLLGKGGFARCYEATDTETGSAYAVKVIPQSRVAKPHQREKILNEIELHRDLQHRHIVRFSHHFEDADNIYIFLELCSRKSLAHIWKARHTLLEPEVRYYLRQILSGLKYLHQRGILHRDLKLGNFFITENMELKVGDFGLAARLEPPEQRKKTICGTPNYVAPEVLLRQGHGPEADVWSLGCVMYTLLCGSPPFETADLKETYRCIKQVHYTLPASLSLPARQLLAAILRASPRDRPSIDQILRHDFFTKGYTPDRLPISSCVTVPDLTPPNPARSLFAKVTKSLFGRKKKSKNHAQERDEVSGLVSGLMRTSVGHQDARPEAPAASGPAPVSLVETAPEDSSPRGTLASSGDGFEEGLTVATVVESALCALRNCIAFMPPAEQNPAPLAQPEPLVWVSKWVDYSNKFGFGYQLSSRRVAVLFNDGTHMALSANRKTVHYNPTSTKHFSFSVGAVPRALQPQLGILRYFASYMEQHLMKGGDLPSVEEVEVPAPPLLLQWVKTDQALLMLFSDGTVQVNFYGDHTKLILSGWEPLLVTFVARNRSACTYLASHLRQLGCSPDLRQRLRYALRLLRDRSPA

[31] = molecular target: Activin receptor type-2A (Homo sapiens) (UniProt P27037); conditions: Compound concentration 1000.0 nM
[32] = system: Receptor-type tyrosine-protein kinase FLT3 (Homo sapiens), P36888 [D835V]; conditions: Compound concentration 1000.0 nM
[33] = molecular target: Mitogen-activated protein kinase kinase kinase 7 (Homo sapiens) (UniProt O43318); conditions: Compound concentration 1000.0 nM
[34] = molecular target: Dual specificity protein kinase CLK1 (Homo sapiens) (UniProt P49759); conditions: Compound concentration 1000.0 nM
[35] = molecular target: Mu-type opioid receptor (Homo sapiens) (UniProt P35372); conditions: Compound concentration 10.0 uM
[36] = molecular target: Tyrosine-protein kinase Mer (Homo sapiens) (UniProt Q12866); conditions: Compound concentration 1000.0 nM
[37] = molecular target: Protein kinase C theta type (Homo sapiens) (UniProt Q04759); conditions: Compound concentration 1000.0 nM
[38] = molecular target: Phosphatidylinositol 3-kinase C2 domain-containing subunit gamma (Homo sapiens) (UniProt O75747); conditions: Compound concentration 1000.0 nM
[39] = molecular target: Protein kinase C delta type (Homo sapiens) (UniProt Q05655); conditions: Compound concentration 1000.0 nM
[40] = molecular target: Cyclin-dependent kinase 13 (Homo sapiens) (UniProt Q14004); conditions: Compound concentration 1000.0 nM
[41] = molecular target: Mitogen-activated protein kinase 14 (Homo sapiens) (UniProt Q16539); conditions: Compound concentration 1000.0 nM
[42] = molecular target: NUAK family SNF1-like kinase 1 (Homo sapiens) (UniProt O60285); conditions: Compound concentration 1000.0 nM
[43] = molecular target: Serine/threonine-protein kinase ULK1 (Homo sapiens) (UniProt O75385); conditions: Compound concentration 1000.0 nM

COc1ccc2c(c1)O[C@H](c1ccc(OC)c(OC)c1)C[C@@H]2NC(=O)C1(c2ccc3c(c2)OC(F)(F)O3)CC1 [A-1596584]
residual activity [1]: 84% | EC50 [2]: 3900 nM (not active) | residual activity [3]: 100% | residual activity [4]: 100% | % Inhibition of Control Specific Binding (Mean n=2) [5]: 4.5% | Ki [6]: 584 nM | residual activity [7]: 59% | residual activity [8]: 100% | residual activity [9]: 100% | residual activity [10]: 100% | % Inhibition of Control Specific Binding (Mean n=2) [11]: -28% | % Inhibition of Control Specific Binding (Mean n=2) [12]: -3.3% | residual activity [13]: 100% | residual activity [14]: 100% | residual activity [15]: 97% | residual activity [16]: 98% | inhibition [17]: 20% | residual activity [18]: 100% | % Inhibition of Control Values (Mean n=2) [19]: 2.2% | residual activity [20]: 74% | residual activity [21]: 100% | residual activity [22]: 85% | residual activity [23]: 100% | residual activity [24]: 100% | inhibition at 60 min, 10 µM [25]: 47.3% | Ki [26]: 218 nM | pKi [26]: 6.66 | residual activity [27]: 99% | residual activity [28]: 97% | residual activity [29]: 100% | residual activity [30]: 100% | residual activity [31]: 97% | residual activity [32]: 92% | residual activity [33]: 100% | residual activity [34]: 100% | inhibition [35]: 4.18% | residual activity [36]: 98% | residual activity [37]: 100% | residual activity [38]: 61% | residual activity [39]: 100% | residual activity [40]: 100% | residual activity [41]: 90% | residual activity [42]: 95% | residual activity [43]: 88%

COc1ccc2c(c1)O[C@@H](c1ccc(OC)c(OC)c1)C[C@H]2NC(=O)C1(c2ccc3c(c2)OC(F)(F)O3)CC1 [A-1596586]
residual activity [1]: 91% | EC50 [2]: 35 nM (active) | residual activity [3]: 91% | residual activity [4]: 76% | % Inhibition of Control Specific Binding (Mean n=2) [5]: 6.7% | Ki [6]: 1190 nM | residual activity [7]: 62% | residual activity [8]: 98% | residual activity [9]: 94% | residual activity [10]: 87% | % Inhibition of Control Specific Binding (Mean n=2) [11]: -20.6% | % Inhibition of Control Specific Binding (Mean n=2) [12]: -9.2% | residual activity [13]: 71% | residual activity [14]: 100% | residual activity [15]: 79% | residual activity [16]: 83% | inhibition [17]: 20.7% | residual activity [18]: 90% | % Inhibition of Control Values (Mean n=2) [19]: 0.8% | residual activity [20]: 81% | residual activity [21]: 93% | residual activity [22]: 80% | residual activity [23]: 100% | residual activity [24]: 100% | inhibition at 60 min, 10 µM [25]: 35% | Ki [26]: 19.6 nM | pKi [26]: 7.71 | residual activity [27]: 100% | residual activity [28]: 93% | residual activity [29]: 94% | residual activity [30]: 92% | residual activity [31]: 90% | residual activity [32]: 99% | residual activity [33]: 100% | residual activity [34]: 100% | inhibition [35]: 6.01% | residual activity [36]: 95% | residual activity [37]: 98% | residual activity [38]: 83% | residual activity [39]: 100% | residual activity [40]: 98% | residual activity [41]: 99% | residual activity [42]: 86% | residual activity [43]: 75%
